Laboratory results reported in PMC4659573 (PLoS ONE, 2015).
Blank lines part the entries; values can stand above or below the molecule they belong to.

Assays:
HCT-116 = test system: HCT-116; parameters: method as in Piramal Healthcare Ltd., proprietary information; 24; details: HCT-116 xenograft mouse model; ref Piramal Healthcare Ltd., proprietary information; 24; cited from earlier work
H-460 = test system: H-460; parameters: method as in Piramal Healthcare Ltd., proprietary information; 24; details: H-460 xenograft mouse model; ref Piramal Healthcare Ltd., proprietary information; 24; cited from earlier work
PIM kinase isoforms = assay: biochemical kinase profiling (S1 Fig)
Procedure: (§1) Supplementary file pone.0143685.s001.pptx: S1 Fig Determination of selectivity of P1446A-05 was established using biochemical kinase profiling (Kinase 400-Profiler, ProQinase, Freiburg, Germany). IC50 values were determined for the 37 kinases whose activity was inhibited by ≥60% at a drug concentration of 10 μM or less (as shown). […] (PPTX) Click here for additional data file.

[1] = target: T1, Glycogen synthase 3ß (GSK3ß) (Homo sapiens, UniProt P49841); assay: biochemical kinase profiling (S1 Fig)
T1 construct: purchased ProQinase, Freiburg, Germany
T1 sequence (P49841 whole entry): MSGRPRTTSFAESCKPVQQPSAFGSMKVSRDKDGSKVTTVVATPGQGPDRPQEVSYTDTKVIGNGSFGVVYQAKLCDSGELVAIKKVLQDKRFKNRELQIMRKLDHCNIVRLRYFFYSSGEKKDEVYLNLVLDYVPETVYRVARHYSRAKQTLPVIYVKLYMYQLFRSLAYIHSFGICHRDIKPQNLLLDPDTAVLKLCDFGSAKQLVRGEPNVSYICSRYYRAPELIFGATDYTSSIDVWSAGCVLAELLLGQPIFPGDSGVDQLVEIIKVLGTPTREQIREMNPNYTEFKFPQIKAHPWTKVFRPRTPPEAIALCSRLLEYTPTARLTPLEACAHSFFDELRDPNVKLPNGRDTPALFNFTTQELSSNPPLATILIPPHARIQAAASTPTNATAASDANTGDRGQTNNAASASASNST
Procedure: as §1

CDK5 = target: T2, CDK5 (Homo sapiens, UniProt Q00535); assay: biochemical kinase profiling (Kinase 400-Profiler, ProQinase); details: S1 Fig
T2 construct: purchased ProQinase, Freiburg, Germany
T2 sequence (Q00535 whole entry): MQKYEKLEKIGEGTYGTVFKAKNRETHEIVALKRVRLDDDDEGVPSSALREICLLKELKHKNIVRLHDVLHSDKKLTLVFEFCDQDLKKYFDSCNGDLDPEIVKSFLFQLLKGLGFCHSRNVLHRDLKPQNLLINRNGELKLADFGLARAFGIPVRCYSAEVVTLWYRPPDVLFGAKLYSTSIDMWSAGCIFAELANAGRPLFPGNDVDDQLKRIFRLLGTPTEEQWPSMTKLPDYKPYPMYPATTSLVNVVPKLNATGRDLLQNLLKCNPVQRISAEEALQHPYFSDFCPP
T2 sequence (Q15078 99-307 partner limits assumed): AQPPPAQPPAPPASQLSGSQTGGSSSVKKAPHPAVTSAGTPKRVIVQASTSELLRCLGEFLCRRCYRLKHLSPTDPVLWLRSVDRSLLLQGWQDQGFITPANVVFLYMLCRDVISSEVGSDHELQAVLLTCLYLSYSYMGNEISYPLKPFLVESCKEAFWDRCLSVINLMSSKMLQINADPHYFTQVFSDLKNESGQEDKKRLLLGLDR
Procedure: as §1

CDK4 = target: T3, CDK4 (Homo sapiens, UniProt P11802); assay: as above; details: S1 Fig
T3 construct: purchased ProQinase, Freiburg, Germany
T3 sequence (P11802 whole entry): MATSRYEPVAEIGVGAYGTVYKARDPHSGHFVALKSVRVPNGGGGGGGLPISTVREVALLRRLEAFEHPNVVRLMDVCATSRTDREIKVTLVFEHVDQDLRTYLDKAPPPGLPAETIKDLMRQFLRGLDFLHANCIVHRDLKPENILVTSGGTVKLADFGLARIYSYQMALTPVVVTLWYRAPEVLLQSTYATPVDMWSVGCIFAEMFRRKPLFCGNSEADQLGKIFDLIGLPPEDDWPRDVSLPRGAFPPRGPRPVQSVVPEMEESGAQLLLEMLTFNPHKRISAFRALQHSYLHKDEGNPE
T3 sequence (P24385 whole entry partner): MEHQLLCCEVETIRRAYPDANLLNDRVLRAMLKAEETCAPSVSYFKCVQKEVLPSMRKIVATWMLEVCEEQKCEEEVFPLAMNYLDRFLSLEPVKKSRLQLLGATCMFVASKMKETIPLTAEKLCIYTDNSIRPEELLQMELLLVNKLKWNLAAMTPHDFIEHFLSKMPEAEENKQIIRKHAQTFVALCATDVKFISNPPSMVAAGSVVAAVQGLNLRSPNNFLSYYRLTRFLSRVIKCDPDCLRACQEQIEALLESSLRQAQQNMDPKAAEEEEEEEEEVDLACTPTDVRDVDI
Procedure: as §1

CDK8 = target: T4, CDK8 (Homo sapiens, UniProt P49336); assay: as above; details: S1 Fig
T4 construct: purchased ProQinase, Freiburg, Germany
T4 sequence (P49336 whole entry): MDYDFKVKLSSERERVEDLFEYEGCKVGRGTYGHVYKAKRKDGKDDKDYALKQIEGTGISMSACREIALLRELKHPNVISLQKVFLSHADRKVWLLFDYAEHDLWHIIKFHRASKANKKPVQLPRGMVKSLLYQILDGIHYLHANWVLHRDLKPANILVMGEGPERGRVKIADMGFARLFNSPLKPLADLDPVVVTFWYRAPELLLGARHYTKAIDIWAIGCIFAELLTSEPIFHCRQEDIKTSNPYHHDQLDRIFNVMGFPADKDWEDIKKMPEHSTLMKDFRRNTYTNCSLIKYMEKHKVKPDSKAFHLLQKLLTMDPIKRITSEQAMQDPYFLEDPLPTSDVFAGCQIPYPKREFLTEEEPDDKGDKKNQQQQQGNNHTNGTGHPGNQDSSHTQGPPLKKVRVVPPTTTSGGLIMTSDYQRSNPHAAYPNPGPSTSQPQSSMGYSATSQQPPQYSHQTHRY
T4 sequence (P24863 whole entry partner): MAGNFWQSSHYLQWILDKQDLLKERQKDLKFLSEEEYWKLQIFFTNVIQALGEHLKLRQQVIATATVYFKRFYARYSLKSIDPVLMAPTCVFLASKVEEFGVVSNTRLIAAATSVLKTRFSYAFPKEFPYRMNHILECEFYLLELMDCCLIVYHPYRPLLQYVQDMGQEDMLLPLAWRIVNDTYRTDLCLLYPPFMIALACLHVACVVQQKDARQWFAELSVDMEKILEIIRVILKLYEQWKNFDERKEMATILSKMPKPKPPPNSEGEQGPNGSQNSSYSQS
Procedure: as §1

CDK1 = target: T5, CDK1 (Homo sapiens, UniProt P06493); assay: as above; details: S1 Fig
T5 construct: purchased ProQinase, Freiburg, Germany
T5 sequence (P06493 whole entry): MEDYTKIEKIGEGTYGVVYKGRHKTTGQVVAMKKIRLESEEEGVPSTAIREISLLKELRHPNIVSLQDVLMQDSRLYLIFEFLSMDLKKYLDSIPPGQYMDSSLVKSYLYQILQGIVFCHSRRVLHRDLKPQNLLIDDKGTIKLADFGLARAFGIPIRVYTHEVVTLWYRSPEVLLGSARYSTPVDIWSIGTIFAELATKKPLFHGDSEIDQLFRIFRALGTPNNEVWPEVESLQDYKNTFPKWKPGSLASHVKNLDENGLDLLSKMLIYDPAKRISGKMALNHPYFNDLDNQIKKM
T5 sequence (P14635 whole entry partner): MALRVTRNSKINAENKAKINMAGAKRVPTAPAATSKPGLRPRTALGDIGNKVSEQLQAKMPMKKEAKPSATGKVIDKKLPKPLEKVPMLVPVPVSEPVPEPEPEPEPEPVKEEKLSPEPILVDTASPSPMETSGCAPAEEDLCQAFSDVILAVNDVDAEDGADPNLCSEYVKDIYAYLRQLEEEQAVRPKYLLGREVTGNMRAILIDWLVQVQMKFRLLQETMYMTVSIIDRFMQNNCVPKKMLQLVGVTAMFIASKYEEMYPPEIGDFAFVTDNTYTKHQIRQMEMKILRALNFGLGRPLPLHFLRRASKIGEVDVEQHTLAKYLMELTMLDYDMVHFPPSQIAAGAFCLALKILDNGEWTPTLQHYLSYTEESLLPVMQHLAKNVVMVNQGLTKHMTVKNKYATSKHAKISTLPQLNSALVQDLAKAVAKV
Procedure: as §1

CDK2 = target: T6, CDK2 (Homo sapiens, UniProt P24941); assay: as above; details: S1 Fig
T6 construct: purchased ProQinase, Freiburg, Germany
Procedure: as §1

CDK6 = target: T7, CDK6 (Homo sapiens, UniProt Q00534); assay: as above; details: S1 Fig
T7 construct: purchased ProQinase, Freiburg, Germany
T7 sequence (Q00534 whole entry): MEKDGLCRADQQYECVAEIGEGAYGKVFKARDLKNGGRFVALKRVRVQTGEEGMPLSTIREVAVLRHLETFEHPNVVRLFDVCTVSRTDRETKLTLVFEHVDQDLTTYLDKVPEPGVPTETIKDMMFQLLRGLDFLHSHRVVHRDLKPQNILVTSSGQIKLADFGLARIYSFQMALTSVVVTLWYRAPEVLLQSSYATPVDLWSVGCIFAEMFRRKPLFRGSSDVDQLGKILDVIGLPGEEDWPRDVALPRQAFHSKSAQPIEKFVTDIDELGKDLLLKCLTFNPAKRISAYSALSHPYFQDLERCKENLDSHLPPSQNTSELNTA
T7 sequence (P24385 whole entry partner): as the sequence (P24385 whole entry partner) above
Procedure: as §1

[2] = test system: kinases (Kinase 400-Profiler panel); assay: kinase selectivity profiling (Kinase 400-Profiler, ProQinase); assay type: biochemical; details: at a drug concentration of 10 μM or less
Procedure: as §1

primary CLL cells = assay: CLL cell apoptosis, Annexin V staining within the CD19+ subset, flow cytometry; assay type: cell-based, human; details: for CLL cell apoptosis with selective CDK inhibitors: alone or in combination, data not shown
Excerpt: Following approval by the Committee for Protection of Human Subjects at Dartmouth-Hitchcock Medical Center, the Institutional Review Board at Oregon Health and Science University and written consent of patients, peripheral blood was obtained from patients with B-CLL at the hematology clinics at the above institutions (N = 52). The mean time from CLL diagnosis to entry of study was 5 years; 39 patients (75%) were previously untreated. Isolation of peripheral blood mononuclear cells (PMBCs) was performed using standard Ficoll-Hypaque technique (Amersham, Piscataway, NJ). CLL samples had more than 90% CD5^+/CD19^+ cells, as determined by flow cytometry. CLL cells were cultured in RMPI-1640 medium supplemented with 15% fetal bovine serum, 100 U/mL penicillin, 100 μg/mL streptomycin, 2 mM L-glutamine, 25 mM HEPES, 100 μM non-essential amino acids and 1 mM sodium pyruvate (Lonza, Walkersville, MD). 10 CLL samples with 17p deletion were obtained from the CLL Center at Dana-Farber Cancer Institute. All experiments were performed with freshly isolated cells except the viability assays involving the latter, which were performed with viably frozen cells.
CLL cell apoptosis was measured in duplicates as previously described using the ApoScreen Annexin V Apoptosis Kit. Briefly, cells were resuspended in 150 μl of Annexin V binding buffer containing 1 μl of Annexin V-PE, 1 μl of 7-aminoactinomycin D (7-AAD) and 1 μl of CD19-mAbs (Southern Biotech, Birmingham, AL) followed by flow cytometry on a MACSQuant flow cytometer (Miltenyi Biotec, San Diego, CA). Flow cytometry analysis was performed using FlowJo software (Tree Star, Ashland, OR). P1446A was provided by Piramal Healthcare Ltd. (Mumbai, India). JNK Inhibitor VIII, SP600125, SB203580, ABT-737 and PD0332991 were obtained from Selleck Chemicals (Houston, TX) and CVT-313—from Santa Cruz Biotechnology (Dallas, TX).
Here and subsequently, apoptosis was determined by Annexin V staining within the CD19^+ subset of cells. Horizontal lines represent the mean. […] IC50 value was determined for CLL samples with mutated (N = 13) and unmutated IGHV (N = 10). […] Cytogenetics markers were determined by fluorescent in situ hybridization [no marker, 11q, trisomy 12, 13q, 17p]. Horizontal lines represent the mean. […] Since we noted a significant variation in baseline apoptosis between patient samples, normalization to the time-matched untreated controls was performed to more clearly reflect the drug-induced apoptosis. *- p<0.05 compared to untreated control.

relapsed/refractory CLL = details: cited from earlier work

concentration range of inhibition in vitro (PIM kinase isoforms): nanomolar concentration range | concentration range of inhibition in vitro [1]: nanomolar concentration range | IC50 (CDK5): 210 nM | IC50 (CDK4): 90 nM | IC50 (CDK8): 12 nM | IC50 (CDK1): 25 nM | IC50 (CDK2): 180 nM | IC50 (CDK6): 210 nM | number of kinases whose activity was inhibited by ≥60% [2]: 37
Structure (SMILES): CN1CC[C@@H](c2c(O)cc(O)c3c(=O)cc(-c4ccc(C(F)(F)F)cc4Cl)oc23)[C@@H]1CO [P1446A]
tumor growth in xenograft (HCT-116): restricted growth | tumor growth in xenograft (H-460): restricted growth | cells that underwent apoptosis (primary CLL cells; 0.5 μM, 24 hour incubation, N = 10, vehicle control 29.2±2.0%): 47.2±3.5% | apoptosis of CLL cells (primary CLL cells; 1.5 μM, 24 hour incubation, N = 10): 83.3±3.3%

Structure (SMILES): COc1ccc(CNc2nc(N(CCO)CCO)nc3c2ncn3C(C)C)cc1 [CVT-313, reference compound]
CLL cell apoptosis with selective CDK inhibitors (primary CLL cells): did not lead to CLL cell apoptosis

Structure (SMILES): CN1CC[C@H](c2c(O)cc(O)c3c(=O)cc(-c4ccccc4Cl)oc23)[C@H](O)C1 [flavopiridol]
patients with responses (relapsed/refractory CLL): 53%

Structure (SMILES): CC(=O)c1c(C)c2cnc(Nc3ccc(N4CCNCC4)cn3)nc2n(C2CCCC2)c1=O [PD0332991, reference compound]
CLL cell apoptosis with selective CDK inhibitors (primary CLL cells): did not lead to CLL cell apoptosis

Structure (SMILES): CCc1cnn2c(NCc3ccc[n+]([O-])c3)cc(N3CCCC[C@H]3CCO)nc12 [Dinaciclib]
overall response rate (relapsed/refractory CLL; patients with relapsed/refractory CLL): 54%
